Measurements taken from patent US10125097B2, “1- [1-(benzoyl)-pyrrolidine-2-carbonyl]-pyrrolidine-2-carbonitrile derivatives” (UNIVERSITAT DE BARCELONA, priority 2012, dated 2018).
Like-named read-outs stand apart in the source and are kept apart here.

Columns and labels:
POP = POP (Homo sapiens (Human), UniProt P48147); conditions: non-competitive POP inhibitor; Park D H et al., Fitoterapia 2010; read-out: IC50 (POP inhibition); cited from earlier work
[1] = Parallel artificial membrane permeability assay (PAMPA); assay type: in vitro ADME; conditions: 200 μM initial concentration, pH 7.4, 4 hours, room temperature; for Papp at 4 h, 200 μM: PAMPA, read-out: Effective permeability Pe
Experimental: Parallel artificial membrane permeability assay (PAMPA) described in Kansy M et al., J. Med. Chem. 1998; 41(7):1007-10 was used to determine the capacity of compounds to cross the Blood-Brain Barrier (BBB) by passive diffusion (Di L et al., Eur. J. Med. Chem. 2003; 38(3):223-32). The effective permeability (Pe) of the compounds was measured at an initial concentration of 200 μM. The buffer solution was prepared from a commercial concentrated one following the manufacturer's instructions. pH was adjusted to 7.4 using a 0.5 M NaOH solution. A stock solution of new compound was prepared in DMSO and diluted with buffer solution to a final 200 μM concentration (0.5% DMSO content). The PAMPA sandwich was separated and each donor well was filled with 200 μL of the compound solution. The acceptor plate was placed into the donor plate, ensuring that the underside of the membrane was in contact with buffer. 4 μL of the mixture of phospholipids (20 mg/mL) in dodecane was added to the filter of each well, and 200 μL of buffer solution was added to the each acceptor well. The plate was covered and incubated at room temperature in a saturated humidity atmosphere for 4 hours under orbital agitation at 100 rpm. After 4 hours, the contents of the acceptor and donor compartments were analyzed by HPLC: 150 μL of each well from the donor plate and 150 μL of each well from the acceptor plate were transferred to HPLC vials, injecting each sample into a reverse-phase C18 column (150 mm×4.6 mm×5 μm, 100 Å) (100 μL/injection from the acceptor wells, 10 μL/injection from the donor wells and for t0 references). Transport was also confirmed by MALDI-TOF spectrometry.
The phospholipid mixture used was a porcine polar brain lipid extract, provided by Avanti polar lipids, with the following composition: 12.6% phosphatidylcholine (PC), 33.1% phosphatidylethanolamine (PE), 18.5% phosphatidylserine (PS), 4.1% phosphatidylinositol (PI), 0.8% phosphatidic acid and 30.9% of other compounds.
The effective permeability (Pe) after 4 hours was calculated using equation 2 and the percentage of transport was calculated using equation 3:
[formula] wherein: t is time (h) CA(t) is the compound concentration in the acceptor well at time t and CD(to) is the compound concentration in the donor well at to.

[2] = target: human prolyl oligopeptidase (Homo sapiens (Human), UniProt P48147); test: POP inhibition assay (Z-G-P-AMC substrate, fluorimetric); assay type: biochemical
human prolyl oligopeptidase, sequence (P48147 whole entry): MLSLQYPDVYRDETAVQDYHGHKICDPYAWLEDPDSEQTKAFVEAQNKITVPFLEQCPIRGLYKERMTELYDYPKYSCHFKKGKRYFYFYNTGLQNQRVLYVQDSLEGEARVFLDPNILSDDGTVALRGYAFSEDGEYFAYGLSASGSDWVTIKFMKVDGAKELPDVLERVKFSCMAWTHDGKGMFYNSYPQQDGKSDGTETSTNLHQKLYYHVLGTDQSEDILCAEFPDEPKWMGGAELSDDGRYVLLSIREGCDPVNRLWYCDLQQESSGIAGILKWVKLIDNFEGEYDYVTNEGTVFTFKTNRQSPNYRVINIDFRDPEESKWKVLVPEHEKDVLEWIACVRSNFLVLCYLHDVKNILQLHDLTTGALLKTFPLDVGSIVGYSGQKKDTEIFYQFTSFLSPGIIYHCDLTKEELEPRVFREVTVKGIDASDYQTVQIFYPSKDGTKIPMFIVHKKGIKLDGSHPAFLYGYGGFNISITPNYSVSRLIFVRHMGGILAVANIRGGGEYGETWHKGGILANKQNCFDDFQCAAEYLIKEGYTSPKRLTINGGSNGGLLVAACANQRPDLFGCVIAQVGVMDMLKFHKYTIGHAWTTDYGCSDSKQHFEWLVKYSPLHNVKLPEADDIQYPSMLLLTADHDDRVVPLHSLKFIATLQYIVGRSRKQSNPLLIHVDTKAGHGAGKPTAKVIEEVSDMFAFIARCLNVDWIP
Experimental: Expression and Purification of Prolyl Oligopeptidase (POP)
POP was obtained by expression in E. coli and affinity purification using a His tail fusion according to a literature procedure (Tarragó T et al., ChemBioChem 2006; 7:827-33) summarized below:
hPOP expression: E. coli BL21 competent cells were transformed with pETM10 hPOP. To induce expression, a pre-culture of LB medium (50 mL) containing kanamycin (50 μg/mL) was inoculated with one colony and was grown overnight at 37° C. Next day, two cultures of LB medium (500 mL) were inoculated with the overnight culture (10 mL). The inoculated cultures were grown at 37° C. and 220 rpm until the OD595 was 1.2 (2.5-3 hours). IPTG was then added (final concentration of 1 mM) and induction was performed overnight at 25° C. Cells were harvested (3500 g, 15 min, 4° C.) and the pellet was suspended in suspension buffer (50 mL) [Tris-HCl pH 8 (50 mM), NaCl (300 mM), imidazole (1 mM)] and sonicated with use of four cycles (each consisting of 15 sec of sonication and 15 sec of rest) at an intensity of 50% and 0.5 pulses, the sample being kept on ice. After sonication, the sample was centrifuged (40 000 g, 30 min, 4° C.) and the supernatant was used immediately for POP purification. An ÁKTA explorer FPLC system was used for purification. The supernatant was applied at a flow of 1 mL/min to a HiTrapQuelating column (5 mL) previously equilibrated with 5 column volumes of suspension buffer. The column was washed with suspension buffer until the absorbance at 280 nm returned to basal level. The column was then rinsed with 5 volumes of washing buffer (50 mM Tris-HCl, pH 8, 300 mM NaCl, 30 mM imidazole). The elution was performed with 4 volumes of elution buffer (50 mM Tris-HCl, pH 8, 300 mM NaCl, 500 mM imidazole). Fractions (4 mL) were collected during the entire elution. POP activity was checked in all fractions and positive ones were analyzed by SDS-PAGE and stained with Biosafe Comassie Stain G-250. Positive fractions were collected and desalted by use of a HiPrep 26/10 Desalting column with Tris-HCl (50 mM, pH 8) as buffer. Recombinant hPOP was quantified with the Bio-Rad Protein Assay with BSA as standard. Aliquots of the recombinant enzyme were prepared and immediately frozen with liquid nitrogen and stored at −80° C.
POP activity was determined following the method described by Toide et al (Toide K et al., J. Pharmacol. Exp. Ther. 1995; 274:1370-8), using Z-G-P-AMC (N-benzyloxycarbonyl-Gly-Pro-methylcoumarinyl-7-amide) as POP substrate. The reactions were performed in 96-well microtiter plates, which allowed simultaneous monitoring of multiple reactions. For each reaction, activity buffer (134 μl, 100 mM Na/K phosphate buffer, pH 8.0) was pre-incubated for 15 min at 37° C. with hPOP (ranging from 20 to 60 nM, depending on the activity of the hPOP batch) and the corresponding new compound solution (3 μl). A stock solution of new compound was prepared in DMSO (100 mM), and dilutions were prepared from this stock solution with DMSO. Alternatively, the reactions were performed using another activity buffer (141 μL, 100 mM Tris-acetate, […], 1 mM DTT, pH 7.3), pre-incubating with hPOP (10 nM) and the corresponding new compound solution (3 μl) (Conditions B).
After preincubation, Z-G-P-AMC (10 μl, 3 mM in 40% 1,4-dioxane) was added (3 μl, 1.5 mM in 40% of 1,4-dioxane, in Conditions B), and the reaction was incubated for 1 hour at 37° C. The reaction was stopped by adding sodium acetate (150 μl, 1 M, pH 4) and the formation of AMC was measured fluorimetrically. The excitation and emission wavelengths were 360/40 and 485/20 nm, respectively.
Several concentration points (ranging from 25 μM to 400 μM) were measured for each compound. The inhibitory activity on prolyl oligopeptidase was calculated according to eq 1. For each new compound, the fluorescence in the presence (a) and in the absence of hPOP (b) was measured. […]

POP, sequence (P48147 whole entry): as above

Row | SMILES | IC50 (POP) [nM] | % T (percentage of transport) [1] [%] | Papp at 4 h, 200 μM [1] [×10⁻⁶ cm/s] | IC50 ([2]; 100 mM Na/K phosphate buffer, pH 8.0, hPOP 20 to 60 nM, Z-G-P-AMC, 1 hour at 37° C., read-out: IC50, inhibition of human prolyl oligopeptidase) [nM] | IC50 ([2]; Conditions B: 100 mM Tris-acetate, 10 mM BSA, 1 mM DTT, pH 7.3, hPOP 10 nM, read-out: IC50, inhibition of human prolyl oligopeptidase, measured in conditions B) [nM]
1 | O=C(/C=C/c1ccc(O)c(O)c1)O[C@H](Cc1ccc(O)c(O)c1)C(=O)O [rosmarinic acid] | 63700 |  |  |  | 
2 | COc1cc(C(=O)N2C[C@@H](C(F)(F)F)C[C@H]2C(=O)N2CCC[C@H]2C#N)cc(OC)c1OCc1ccccc1 [Example 8, (S)-1-((2S,4S)-1-(4-(benzyloxy)-3,5-dimethoxybenzoyl)-4-(trifluoromethyl)-pyrrolidine-2-carbonyl)pyrrolidine-2-carbonitrile] |  | 19.27 | 5.07 | 176 | 
3 | N#C[C@@H]1CCCN1C(=O)[C@@H]1CC(F)(F)CN1C(=O)c1ccc(OCc2ccccc2)cc1 [Example 17, (S)-1-((S)-1-(4-(benzyloxy)benzoyl)-4,4-difluoropyrrolidine-2-carbonyl)pyrrolidine-2-carbonitrile] |  | 14.12 | 8.04 |  | 287
